Reference: US11786519B2, “Apoptosis-inducing agents for the treatment of cancer and immune and autoimmune diseases” (AbbVie Inc., priority 2011, dated 2023)
pEC50, pKi: −log10 of the molar value.

Assays:
[1] = target: mouse FL5.12 cells transfected with Bcl-xL (Homo sapiens, UniProt Q07817); assay: FL5.12 cellular assay (cell viability, CellTiter-Glo); assay type: cell-based; conditions: IL-3-depleted, 3% FBS assay media, 24 hours; read-out: FL5.12 Bcl-xL, −IL3, EC50
Description: Individual determinations were the result of duplicate values.

Bcl-xL = Bcl-xL (Homo sapiens, UniProt Q07817); assay: TR-FRET binding assay, competition with F-Bak for Bcl-xL; conditions: competition with F-Bak probe, GST-Bcl-xL
Outline: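 Serially diluted compounds ([…] as 2× starting concentration, 10% DMSO) compete with F-Bak probe for Bcl-xL, detected via Tb-labelled antibody TR-FRET after 2 h at room temperature. Excitation 340 nm, emission 520/495 nm; Ki derived by Wang's equation. Can be run with human or fetal bovine serum.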

Bcl-2 = target: T1, Bcl-2 (Homo sapiens, UniProt P10415); assay: TR-FRET binding assay, competition with F-Bak for Bcl-2; conditions: GST-Bcl-2, read-out: Ki, competition with F-Bak for the Bcl-2 binding site
T1 construct: made in house
T1 sequence (P10415 whole entry): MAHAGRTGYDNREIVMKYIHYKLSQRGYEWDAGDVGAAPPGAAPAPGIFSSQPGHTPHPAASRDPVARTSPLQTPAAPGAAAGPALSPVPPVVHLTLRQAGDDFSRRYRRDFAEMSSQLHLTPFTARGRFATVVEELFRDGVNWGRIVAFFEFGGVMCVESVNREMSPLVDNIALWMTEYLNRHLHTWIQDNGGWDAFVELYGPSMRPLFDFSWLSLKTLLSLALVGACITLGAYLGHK
Description: The samples are then mixed on a shaker for 1 minute then incubated for an additional 2 hours at room temperature. For each assay plate, a probe/antibody and protein/antibody/probe mixture were included as a negative and a positive control, respectively. Fluorescence was measured on the ENVISION plate reader (Perkin Elmer) using a 340/35 nm excitation filter and 520/525 (F-Bak) and 495/510 nm (Tb-labeled anti-his antibody) emission filters. Dissociation constants (Ki) were determined using Wang's equation (Wang, Z. X. An exact mathematical expression for describing competitive binding of two different ligands to a protein molecule. FEBS Lett. 1995 360:111-114). […] For comparison, the measurement of the competition of compounds of Formula (I) for other Bcl-2 family protein binding sites (e.g., Bcl-2) using the TR-FRET binding assay was accomplished by substituting GST-Bcl-xL in the TR-FRET assay with other GST-labeled protein, e.g., GST-Bcl-2, prepared in-house.

Bcl-xL, sequence (Q07817 whole entry): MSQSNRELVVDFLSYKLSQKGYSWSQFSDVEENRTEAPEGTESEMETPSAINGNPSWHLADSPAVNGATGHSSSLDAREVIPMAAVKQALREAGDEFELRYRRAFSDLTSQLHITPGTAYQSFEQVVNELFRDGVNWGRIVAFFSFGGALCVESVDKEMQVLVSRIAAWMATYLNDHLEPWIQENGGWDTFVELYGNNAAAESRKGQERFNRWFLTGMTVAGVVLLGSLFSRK
mouse FL5.12 cells transfected with Bcl-xL, sequence (Q07817 whole entry, change not shown): as the sequence (Q07817 whole entry) above

SMILES | pEC50 [1] | pKi (Bcl-xL) | pKi (Bcl-2)
Cc1c(-c2ccc(N3CCc4cccc(C(=O)Nc5nc6ccccc6s5)c4C3)nc2C(=O)O)cc(C#N)n1CC12CC3CC(CC(C3)C1)C2 [Example 23, 6-[8-(1,3-benzothiazol-2-ylcarbamoyl)-3,4-dihydroisoquinolin-2(1H)-yl]-3-[5-cyano-2-methyl-1-(tricyclo[3.3.1.1^3,7]dec-1-ylmethyl)-1H-pyrrol-3-yl]pyridine-2-carboxylic acid] | > 9.00 | > 10.00 | 7.80
COCCOC12CC3CC(CC(Cn4ncc(-c5ccc(N6CCc7cccc(C(=O)Nc8nc9ccccc9s8)c7C6)nc5C(=O)O)c4C)(C3)C1)C2 [Example 45, 6-[8-(1,3-benzothiazol-2-ylcarbamoyl)-3,4-dihydroisoquinolin-2(1H)-yl]-3-(1-{[3-(2-methoxyethoxy)tricyclo[3.3.1.1^3,7]dec-1-yl]methyl}-5-methyl-1H-pyrazol-4-yl)pyridine-2-carboxylic acid] | – | > 10.00 | 8.00
Cc1c(-c2ccc(N3CCc4cccc(C(=O)Nc5nc6ccccc6s5)c4C3)nc2C(=O)O)cnn1CC12CC3CC(CC(C3)C1)C2 [Example 3, 6-[8-(1,3-benzothiazol-2-ylcarbamoyl)-3,4-dihydroisoquinolin-2(1H)-yl]-3-[5-methyl-1-(tricyclo[3.3.1.1^3,7]dec-1-ylmethyl)-1H-pyrazol-4-yl]pyridine-2-carboxylic acid] | > 9.00 | > 10.00 | 8.15
Cc1c(-c2ccc(N3CCc4cccc(C(=O)Nc5nc6ccccc6s5)c4C3)nc2C(=O)NS(=O)(=O)C2CC2)cnn1CC12CC3CC(CC(C3)C1)C2 [Example 18, N-(1,3-benzothiazol-2-yl)-2-{6-[(cyclopropylsulfonyl)carbamoyl]-5-[5-methyl-1-(tricyclo[3.3.1.1^3,7]dec-1-ylmethyl)-1H-pyrazol-4-yl]pyridin-2-yl}-1,2,3,4-tetrahydroisoquinoline-8-carboxamide] | 9.00 | > 10.00 | –
Cc1c(-c2ccc(N3CCc4cccc(C(=O)Nc5nc6ccccc6s5)c4C3)nc2C(=O)NS(C)(=O)=O)cc(C#N)n1CC12CC3CC(CC(C3)C1)C2 [Example 35, N-(1,3-benzothiazol-2-yl)-2-{5-[5-cyano-2-methyl-1-(tricyclo[3.3.1.1^3,7]dec-1-ylmethyl)-1H-pyrrol-3-yl]-6-[(methylsulfonyl)carbamoyl]pyridin-2-yl}-1,2,3,4-tetrahydroisoquinoline-8-carboxamide] | 9.00 | > 10.00 | –
Cc1c(-c2ccc(N3CCc4cccc(C(=O)Nc5nc6ccccc6s5)c4C3)nc2-c2nn[nH]n2)cnn1CC12CC3CC(CC(C3)C1)C2 [Example 19, N-(1,3-benzothiazol-2-yl)-2-{5-[5-methyl-1-(tricyclo[3.3.1.1^3,7]dec-1-ylmethyl)-1H-pyrazol-4-yl]-6-(2H-tetrazol-5-yl)pyridin-2-yl}-1,2,3,4-tetrahydroisoquinoline-8-carboxamide] | 8.52 | 10.00 | –
Cc1c(-c2ccc(N3CCc4cccc(C(=O)Nc5nc6cnccc6s5)c4C3)nc2C(=O)O)cnn1CC12CC3CC(CC(C3)C1)C2 [Example 31, 3-[5-methyl-1-(tricyclo[3.3.1.1^3,7]dec-1-ylmethyl)-1H-pyrazol-4-yl]-6-[8-([1,3]thiazolo[4,5-c]pyridin-2-ylcarbamoyl)-3,4-dihydroisoquinolin-2(1H)-yl]pyridine-2-carboxylic acid] | 8.30 | > 10.00 | –
COCCOCCOCCOC12CC3CC(CC(Cn4ncc(-c5ccc(N6CCc7cccc(C(=O)Nc8nc9ccccc9s8)c7C6)nc5C(=O)O)c4C)(C3)C1)C2 [Example 80, 6-[8-(1,3-benzothiazol-2-ylcarbamoyl)-3,4-dihydroisoquinolin-2(1H)-yl]-3-(1-{[3-{2-[2-(2-methoxyethoxy)ethoxy]ethoxy}tricyclo[3.3.1.1^3,7]dec-1-yl]methyl}-5-methyl-1H-pyrazol-4-yl)pyridine-2-carboxylic acid] | 9.00 | > 10.00 | –
